Consider 21 compounds from patent publication US20100105655A1, “NOVEL COMPOUNDS 515” (ASTRAZENECA AB, priority 2008, published 2010).

As a reminder, the IC50 is the midpoint of a concentration-inhibition curve.

In the assay the target is T1, IGFR kinase (Homo sapiens, UniProt P08069).
T1 construct: purchased Millipore
T1 sequence (P08069 31-1367): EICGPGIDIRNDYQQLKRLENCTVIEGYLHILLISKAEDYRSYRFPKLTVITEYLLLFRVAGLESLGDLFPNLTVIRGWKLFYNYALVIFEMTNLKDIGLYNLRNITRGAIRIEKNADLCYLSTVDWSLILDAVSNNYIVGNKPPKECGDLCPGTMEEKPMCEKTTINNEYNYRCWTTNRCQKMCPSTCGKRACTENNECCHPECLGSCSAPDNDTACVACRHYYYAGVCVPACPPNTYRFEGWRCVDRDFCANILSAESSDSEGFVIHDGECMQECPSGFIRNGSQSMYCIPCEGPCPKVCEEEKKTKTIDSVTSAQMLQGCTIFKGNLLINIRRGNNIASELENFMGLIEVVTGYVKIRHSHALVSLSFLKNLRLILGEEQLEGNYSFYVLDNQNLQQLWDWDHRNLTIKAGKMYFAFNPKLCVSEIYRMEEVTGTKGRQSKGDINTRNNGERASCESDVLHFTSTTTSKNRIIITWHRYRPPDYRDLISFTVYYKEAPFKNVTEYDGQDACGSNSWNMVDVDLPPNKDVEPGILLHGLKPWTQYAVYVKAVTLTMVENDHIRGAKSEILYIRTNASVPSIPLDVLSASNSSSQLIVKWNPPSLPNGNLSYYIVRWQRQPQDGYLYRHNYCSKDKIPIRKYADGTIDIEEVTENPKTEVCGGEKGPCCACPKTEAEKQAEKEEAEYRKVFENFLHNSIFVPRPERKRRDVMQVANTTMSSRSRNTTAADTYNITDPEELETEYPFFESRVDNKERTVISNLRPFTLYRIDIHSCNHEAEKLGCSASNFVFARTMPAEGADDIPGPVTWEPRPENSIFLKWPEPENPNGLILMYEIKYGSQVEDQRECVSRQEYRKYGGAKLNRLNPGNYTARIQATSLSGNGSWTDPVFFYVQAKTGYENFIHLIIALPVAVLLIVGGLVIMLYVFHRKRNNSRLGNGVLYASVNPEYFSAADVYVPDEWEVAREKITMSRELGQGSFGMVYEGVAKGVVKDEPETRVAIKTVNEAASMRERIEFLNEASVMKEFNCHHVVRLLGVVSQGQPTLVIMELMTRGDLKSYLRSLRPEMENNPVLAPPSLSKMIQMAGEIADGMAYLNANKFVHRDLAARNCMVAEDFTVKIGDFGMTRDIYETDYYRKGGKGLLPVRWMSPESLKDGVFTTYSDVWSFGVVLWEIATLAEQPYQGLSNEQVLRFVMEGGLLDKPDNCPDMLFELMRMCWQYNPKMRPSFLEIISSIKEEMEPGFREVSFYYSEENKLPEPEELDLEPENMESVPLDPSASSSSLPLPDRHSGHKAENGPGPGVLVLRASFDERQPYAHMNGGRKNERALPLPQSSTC
The assay can be described thus: Enzyme assay (c), IGFR kinase, Caliper LabChip. Type of assay: biochemical. To be noted: 30 nM IGFR kinase, 6 uM ATP, 3 uM peptide mix; read-out: IGFR IC50.
Turning to `COc1cc(N2CCN(CCO)[C@H](C)C2)ccc1Nc1ncc(C)c(-c2cnc3ccccn23)n1` [Example 270, 2-[(2R)-4-[4-[(4-imidazo[1,2-a]pyridin-3-yl-5-methyl-pyrimidin-2-yl)amino]-3-methoxy-phenyl]-2-methyl-piperazin-1-yl]ethanol], the IC50 was determined as 43 nM.

As for `COc1cc(C2CCN(C(=O)CO)CC2)ccc1Nc1ncc(C)c(-c2cnn3ccccc23)n1` [Example 163, 2-hydroxy-1-[4-[3-methoxy-4-[(5-methyl-4-pyrazolo[1,5-a]pyridin-3-yl-pyrimidin-2-yl)amino]phenyl]-1-piperidyl]ethanone], the IC50 was found to be 16 nM.

For the compound `COc1cc(OC2CN(C(=O)[C@@H](C)O)C2)ccc1Nc1ncc(Cl)c(-c2cnc3ccccn23)n1` [Example 27.6, (2R)-1-[3-[4-[(5-chloro-4-imidazo[1,2-a]pyridin-3-yl-pyrimidin-2-yl)amino]-3-methoxy-phenoxy]azetidin-1-yl]-2-hydroxy-propan-1-one], the IC50 is 14 nM.

Consider `COc1cc(C2CCN(C(C)=O)CC2)ccc1Nc1ncc(OC)c(-c2cnc3ccccn23)n1` [Example 94, 1-[4-[4-[(4-imidazo[1,2-a]pyridin-3-yl-5-methoxy-pyrimidin-2-yl)amino]-3-methoxy-phenyl]-1-piperidyl]ethanone], for which the half-inhibitory concentration (IC50) came to 136 nM.

As for `COc1cc(N2CC3CN(C(CO)CO)CC(C2)O3)ccc1Nc1ncc(Cl)c(-c2cnn3ccccc23)n1` [Example 242, 2-[7-[4-[(5-chloro-4-pyrazolo[1,5-a]pyridin-3-yl-pyrimidin-2-yl)amino]-3-methoxy-phenyl]-9-oxa-3,7-diazabicyclo[3.3.1]nonan-3-yl]propane-1,3-diol], the IC50 was 740 nM.

For the compound `COc1cc(N2CCN(C(C)=O)CC2)cc(F)c1Nc1ncc(Cl)c(-c2cnc3ccccn23)n1` [Example 3.26, 1-[4-[4-[(5-chloro-4-imidazo[1,2-a]pyridin-3-yl-pyrimidin-2-yl)amino]-3-fluoro-5-methoxy-phenyl]piperazin-1-yl]ethanone], the half-inhibitory concentration (IC50) turned out to be 19 nM.

In the case of `COc1cc(N2CC[C@@H](N(C)C)C2)ccc1Nc1ncc(F)c(-c2cnc3ccccn23)n1` [Example 76, N-[4-[(3R)-3-dimethylaminopyrrolidin-1-yl]-2-methoxy-phenyl]-5-fluoro-4-imidazo[1,2-a]pyridin-3-yl-pyrimidin-2-amine], the IC50 stood at 33 nM.

For `COc1cc(N2CCN(CCO)CC2)ccc1Nc1ncc(C(F)(F)F)c(-c2cnc3ccccn23)n1` [Example 109, 2-[4-[4-[[4-imidazo[1,2-a]pyridin-3-yl-5-(trifluoromethyl)pyrimidin-2-yl]amino]-3-methoxy-phenyl]piperazin-1-yl]ethanol], the IC50 was 16 nM.

On to `COc1cc(N2CCNCC2)ccc1Nc1ncc(F)c(-c2cnn3ccccc23)n1` [Example 171, 5-fluoro-N-(2-methoxy-4-piperazin-1-yl-phenyl)-4-pyrazolo[1,5-a]pyridin-3-yl-pyrimidin-2-amine], for which the IC50 came out at 17 nM.

Take `COc1cc(N2CC3CN(C(=O)[C@H](C)O)CC(C2)O3)ccc1Nc1ncc(Cl)c(-c2cnc3c(F)cccn23)n1` [Example 213, (2S)-1-[3-[4-[[5-chloro-4-(8-fluoroimidazo[1,2-a]pyridin-3-yl)pyrimidin-2-yl]amino]-3-methoxy-phenyl]-9-oxa-3,7-diazabicyclo[3.3.1]nonan-7-yl]-2-hydroxy-propan-1-one]: the IC50 came out at 14 nM.

As to `COc1cc(C2CCCN(C(C)=O)C2)ccc1Nc1ncc(Cl)c(-c2cnc3ccccn23)n1` (stereo not drawn) [Example 3.29, 1-[3-[4-[(5-chloro-4-imidazo[1,2-a]pyridin-3-yl-pyrimidin-2-yl)amino]-3-methoxy-phenyl]-1-piperidyl]ethanone], the IC50 stood at 6 nM.

In the case of `COc1cc(OC2CN(C[C@H](C)O)C2)ccc1Nc1ncc(Cl)c(-c2cnc3ccccn23)n1` [Example 61, (2S)-1-[3-[4-[(5-chloro-4-imidazo[1,2-a]pyridin-3-yl-pyrimidin-2-yl)amino]-3-methoxy-phenoxy]azetidin-1-yl]propan-2-ol], the IC50 stood at 21 nM.

Consider `COc1cc(N(C)CC(=O)N2CCNCC2)ccc1Nc1ncc(Cl)c(-c2cnc3c(F)cccn23)n1` [Example 227, 2-[4-[[5-chloro-4-(8-fluoroimidazo[1,2-a]pyridin-3-yl)pyrimidin-2-yl]amino]-3-methoxy-N-methyl-anilino]-1-piperazin-1-yl-ethanone], for which the IC50 stood at 48 nM.

As to `COc1cc(C2CCN(C(=O)[C@H](C)OC)CC2)ccc1Nc1ncc(Cl)c(-c2cnc3ccccn23)n1` [Example 28.3, (2S)-1-[4-[4-[(5-chloro-4-imidazo[1,2-a]pyridin-3-yl-pyrimidin-2-yl)amino]-3-methoxy-phenyl]-1-piperidyl]-2-methoxy-propan-1-one], the half-maximal inhibitory concentration (IC50) is 6 nM.

With `COc1ccc(OC[C@H]2CCCN2C(C)=O)cc1Nc1ncc(Cl)c(-c2cnc3ccccn23)n1` [Example 17, 1-[(2R)-2-[[3-[(5-chloro-4-imidazo[1,2-a]pyridin-3-yl-pyrimidin-2-yl)amino]-4-methoxy-phenoxy]methyl]pyrrolidin-1-yl]ethanone], the concentration for half-maximal inhibition (IC50) was 58 nM.

As for `CNC(=O)CN(C)c1ccc(Nc2ncc(Cl)c(-c3cnc4c(F)cccn34)n2)c(OC)c1` [Example 226, 2-[4-[[5-chloro-4-(8-fluoroimidazo[1,2-a]pyridin-3-yl)pyrimidin-2-yl]amino]-3-methoxy-N-methyl-anilino]-N-methyl-acetamide], the IC50 amounted to 33 nM.

Turning to `COc1cc(N2CCCC2C(=O)N2CCOCC2)ccc1Nc1ncc(Cl)c(-c2cnc3ccccn23)n1` (stereo not drawn) [Example 3.2, [1-[4-[(5-chloro-4-imidazo[1,2-a]pyridin-3-yl-pyrimidin-2-yl)amino]-3-methoxy-phenyl]pyrrolidin-2-yl]-morpholino-methanone], the half-maximal inhibitory concentration (IC50) worked out at 54 nM.

Consider `COc1ccc(N2CCN(C(=O)CN(C)C)CC2)cc1Nc1ncc(C)c(-c2cnn3ccccc23)n1` [Example 236, 2-(dimethylamino)-1-[4-[4-methoxy-3-[(5-methyl-4-pyrazolo[1,5-a]pyridin-3-yl-pyrimidin-2-yl)amino]phenyl]piperazin-1-yl]ethanone], for which the IC50 turned out to be 49 nM.

Consider `COc1cc(C2CCN(C(C)=O)CC2)ccc1Nc1ncc(C)c(-c2cnc3ccccn23)n1` [Example 99, 1-[4-[4-[(4-imidazo[1,2-a]pyridin-3-yl-5-methyl-pyrimidin-2-yl)amino]-3-methoxy-phenyl]-1-piperidyl]ethanone], for which the IC50 is 24 nM.

For `COc1cc(N2CCN(C(C)=O)CC2)ccc1Nc1ncc(Cl)c(-c2cnc3cc(CN(C)C)ccn23)n1` [Example 185, 1-[4-[4-[[5-chloro-4-[7-(dimethylaminomethyl)imidazo[1,2-a]pyridin-3-yl]pyrimidin-2-yl]amino]-3-methoxy-phenyl]piperazin-1-yl]ethanone], the half-maximal inhibitory concentration (IC50) was found to be 170 nM.

For the compound `COc1cc(OC2CN(C(=O)C3(O)CC3)C2)ccc1Nc1ncc(Cl)c(-c2cnc3ccccn23)n1` [Example 27.5, [3-[4-[(5-chloro-4-imidazo[1,2-a]pyridin-3-yl-pyrimidin-2-yl)amino]-3-methoxy-phenoxy]azetidin-1-yl]-(1-hydroxycyclopropyl)methanone], the concentration for half-maximal inhibition (IC50) was 23 nM.
